Experimental data: PubChem BioAssay AID2060485 (Molecular Pharmacology Branch, DTP, NCI, 2025)

System: A375 multi-cell spheroids with HUVEC/MSC, viability
Assay: Anticancer human tumor A375 cell line growth inhibition [GQUAD];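 further: spheroids exposed to compounds for seven days before readout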
Conditions: for IC50: curve of first compound; for viability, T/C: stronger effect = lower value
How it was run: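 Multi-cell-type spheroids of tumor cells with HUVEC and mesenchymal stem cells, treated with drug combinations. Concentrations descend in half-log steps from near clinical Cmax, or from 10 microM where Cmax is unknown; viability read-out.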

[1] = second compound 0.0316 µM, first compound 0.0316 µM
[2] = second compound 0.0316 µM, first compound 0.1 µM
[3] = second compound 0.0316 µM, first compound 0.316 µM
[4] = second compound 0.0316 µM, first compound 1 µM
[5] = second compound 0.0316 µM, first compound 3.16 µM
[6] = second compound 0.0316 µM, first compound 10 µM
[7] = second compound 0.1 µM, first compound 0.0316 µM
[8] = second compound 0.1 µM, first compound 0.1 µM
[9] = second compound 0.1 µM, first compound 0.316 µM
[10] = second compound 0.1 µM, first compound 1 µM
[11] = second compound 0.1 µM, first compound 3.16 µM
[12] = second compound 0.1 µM, first compound 10 µM
[13] = second compound 0.316 µM, first compound 0.0316 µM
[14] = second compound 0.316 µM, first compound 0.1 µM
[15] = second compound 0.316 µM, first compound 0.316 µM
[16] = second compound 0.316 µM, first compound 1 µM
[17] = second compound 0.316 µM, first compound 3.16 µM
[18] = second compound 0.316 µM, first compound 10 µM
[19] = second compound 1 µM, first compound 0.0316 µM
[20] = second compound 1 µM, first compound 0.1 µM
[21] = second compound 1 µM, first compound 0.316 µM
[22] = second compound 1 µM, first compound 1 µM
[23] = second compound 1 µM, first compound 3.16 µM
[24] = second compound 1 µM, first compound 10 µM
[25] = second compound 3.16 µM, first compound 0.0316 µM
[26] = second compound 3.16 µM, first compound 0.1 µM
[27] = second compound 3.16 µM, first compound 0.316 µM
[28] = second compound 3.16 µM, first compound 1 µM
[29] = second compound 3.16 µM, first compound 3.16 µM
[30] = second compound 3.16 µM, first compound 10 µM
[31] = second compound 10 µM, first compound 0.0316 µM
[32] = second compound 10 µM, first compound 0.1 µM
[33] = second compound 10 µM, first compound 0.316 µM
[34] = second compound 10 µM, first compound 1 µM
[35] = second compound 10 µM, first compound 3.16 µM
[36] = second compound 10 µM, first compound 10 µM

Q: How did the IC50 (second compound 0.0316 µM) turn out when COc1cc(C2c3cc4c(cc3C(OC3OC5COC(C)OC5C(O)C3O)C3COC(=O)C23)OCO4)cc(OC)c1O (stereo not drawn) + Cc1[nH]c2ccc(F)cc2c1-c1nc2c3cccnc3c3ncccc3c2[nH]1 was run?
A: 1630 nM

Q: What about the IC50 (second compound 0.1 µM) of the same compound?
A: 1010 nM

Q: What about the IC50 (second compound 0.316 µM) of the same compound?
A: 1840 nM

Q: And the IC50 (second compound 1 µM)?
A: 1810 nM

Q: And the IC50 (second compound 3.16 µM)?
A: 1300 nM

Q: And the IC50 (second compound 10 µM)?
A: 969 nM

Q: And the viability, T/C [1]?
A: 109%

Q: What about the viability, T/C [2] of the same compound?
A: 109%

Q: And the viability, T/C [3]?
A: 97.6%

Q: What about the viability, T/C [4] of the same compound?
A: 59.6%

Q: And the viability, T/C [5]?
A: 37.6%

Q: What about the viability, T/C [6] of the same compound?
A: 26.9%

Q: What about the viability, T/C [7] of the same compound?
A: 97.7%

Q: What about the viability, T/C [8] of the same compound?
A: 134%

Q: What about the viability, T/C [9] of the same compound?
A: 94.8%

Q: What about the viability, T/C [10] of the same compound?
A: 51.5%

Q: What about the viability, T/C [11] of the same compound?
A: 33.1%

Q: And the viability, T/C [12]?
A: 27.7%

Q: And the viability, T/C [13]?
A: 101%

Q: What about the viability, T/C [14] of the same compound?
A: 156%

Q: And the viability, T/C [15]?
A: 89.2%

Q: And the viability, T/C [16]?
A: 68.2%

Q: What about the viability, T/C [17] of the same compound?
A: 40.2%

Q: What about the viability, T/C [18] of the same compound?
A: 26%

Q: And the viability, T/C [19]?
A: 109%

Q: What about the viability, T/C [20] of the same compound?
A: 130%

Q: And the viability, T/C [21]?
A: 89.7%

Q: What about the viability, T/C [22] of the same compound?
A: 62.5%

Q: What about the viability, T/C [23] of the same compound?
A: 43.2%

Q: What about the viability, T/C [24] of the same compound?
A: 29%

Q: And the viability, T/C [25]?
A: 69%

Q: What about the viability, T/C [26] of the same compound?
A: 86.6%

Q: And the viability, T/C [27]?
A: 69.8%

Q: And the viability, T/C [28]?
A: 51.6%

Q: What about the viability, T/C [29] of the same compound?
A: 40.2%

Q: And the viability, T/C [30]?
A: 27.8%

Q: And the viability, T/C [31]?
A: 78.9%

Q: What about the viability, T/C [32] of the same compound?
A: 87.4%

Q: And the viability, T/C [33]?
A: 76.1%

Q: What about the viability, T/C [34] of the same compound?
A: 48.2%

Q: What about the viability, T/C [35] of the same compound?
A: 34.4%

Q: And the viability, T/C [36]?
A: 25.6%

Q: For COc1cccc2c1C(=O)c1c(O)c3c(c(O)c1C2=O)CC(O)(C(=O)CO)CC3OC1CC(N)C(O)C(C)O1 (stereo not drawn) + Cc1[nH]c2ccc(F)cc2c1-c1nc2c3cccnc3c3ncccc3c2[nH]1, which IC50 (second compound 0.0316 µM) is on record?
A: 271 nM

Q: What about the IC50 (second compound 0.1 µM) of the same compound?
A: 216 nM

Q: And the IC50 (second compound 0.316 µM)?
A: 286 nM

Q: And the IC50 (second compound 1 µM)?
A: 251 nM

Q: What about the IC50 (second compound 3.16 µM) of the same compound?
A: 288 nM

Q: And the IC50 (second compound 10 µM)?
A: 326 nM

Q: And the viability, T/C [1]?
A: 101%

Q: What about the viability, T/C [2] of the same compound?
A: 90.8%

Q: What about the viability, T/C [3] of the same compound?
A: 38.9%

Q: And the viability, T/C [4]?
A: 20.5%

Q: What about the viability, T/C [5] of the same compound?
A: 2.15%

Q: And the viability, T/C [6]?
A: 0.1%

Q: What about the viability, T/C [7] of the same compound?
A: 103%

Q: What about the viability, T/C [8] of the same compound?
A: 74.5%

Q: What about the viability, T/C [9] of the same compound?
A: 35.2%

Q: And the viability, T/C [10]?
A: 19.8%

Q: And the viability, T/C [11]?
A: 2.23%

Q: And the viability, T/C [12]?
A: 0.08%

Q: And the viability, T/C [13]?
A: 110%

Q: And the viability, T/C [14]?
A: 89.2%

Q: And the viability, T/C [15]?
A: 41.3%

Q: What about the viability, T/C [16] of the same compound?
A: 22.7%

Q: And the viability, T/C [17]?
A: 3.01%

Q: What about the viability, T/C [18] of the same compound?
A: 0.09%

Q: And the viability, T/C [19]?
A: 99.3%

Q: And the viability, T/C [20]?
A: 82.8%

Q: And the viability, T/C [21]?
A: 38.7%

Q: And the viability, T/C [22]?
A: 18.7%

Q: And the viability, T/C [23]?
A: 3.16%

Q: What about the viability, T/C [24] of the same compound?
A: 0.1%

Q: What about the viability, T/C [25] of the same compound?
A: 68.2%

Q: And the viability, T/C [26]?
A: 60.1%

Q: What about the viability, T/C [27] of the same compound?
A: 49.4%

Q: And the viability, T/C [28]?
A: 21.3%

Q: And the viability, T/C [29]?
A: 0.45%

Q: And the viability, T/C [30]?
A: 0.13%

Q: What about the viability, T/C [31] of the same compound?
A: 71.9%

Q: And the viability, T/C [32]?
A: 72%

Q: What about the viability, T/C [33] of the same compound?
A: 48.9%

Q: What about the viability, T/C [34] of the same compound?
A: 20.9%

Q: What about the viability, T/C [35] of the same compound?
A: 1.35%

Q: And the viability, T/C [36]?
A: 0.22%

Q: Which results are given for Nc1ccn(C2OC(CO)C(O)C2(F)F)c(=O)n1 (stereo not drawn) + Cc1[nH]c2ccc(F)cc2c1-c1nc2c3cccnc3c3ncccc3c2[nH]1?
A: IC50 (second compound 0.0316 µM): < 31.6 nM; IC50 (second compound 0.1 µM): < 31.6 nM; IC50 (second compound 0.316 µM): < 31.6 nM; IC50 (second compound 1 µM): < 31.6 nM; IC50 (second compound 3.16 µM): < 31.6 nM; IC50 (second compound 10 µM): < 31.6 nM; viability, T/C [1]: 20.4%; viability, T/C [2]: 11%; viability, T/C [3]: 10.3%; viability, T/C [4]: 8.14%; viability, T/C [5]: 10.7%; viability, T/C [6]: 10.2%; viability, T/C [7]: 22.9%; viability, T/C [8]: 9.94%; viability, T/C [9]: 12%; viability, T/C [10]: 9.5%; viability, T/C [11]: 12.2%; viability, T/C [12]: 8.91%; viability, T/C [13]: 21.1%; viability, T/C [14]: 12.7%; viability, T/C [15]: 11.2%; viability, T/C [16]: 10.8%; viability, T/C [17]: 10.8%; viability, T/C [18]: 11.3%; viability, T/C [19]: 22.9%; viability, T/C [20]: 12.7%; viability, T/C [21]: 14.8%; viability, T/C [22]: 13.6%; viability, T/C [23]: 12.8%; viability, T/C [24]: 11.8%; viability, T/C [25]: 15.4%; viability, T/C [26]: 13.1%; viability, T/C [27]: 13%; viability, T/C [28]: 13.9%; viability, T/C [29]: 19%; viability, T/C [30]: 13.9%; viability, T/C [31]: 16.1%; viability, T/C [32]: 10.7%; viability, T/C [33]: 10.9%; viability, T/C [34]: 10.3%; viability, T/C [35]: 13.2%; viability, T/C [36]: 12%

Q: How did the IC50 (second compound 0.0316 µM) turn out when O=c1[nH]cc(F)c(=O)[nH]1 + Cc1[nH]c2ccc(F)cc2c1-c1nc2c3cccnc3c3ncccc3c2[nH]1 was run?
A: > 10000 nM

Q: And the IC50 (second compound 0.1 µM)?
A: > 10000 nM

Q: What about the IC50 (second compound 0.316 µM) of the same compound?
A: > 10000 nM

Q: And the IC50 (second compound 1 µM)?
A: > 10000 nM

Q: What about the IC50 (second compound 3.16 µM) of the same compound?
A: > 10000 nM

Q: And the IC50 (second compound 10 µM)?
A: > 10000 nM

Q: And the viability, T/C [1]?
A: 102%

Q: And the viability, T/C [2]?
A: 99%

Q: And the viability, T/C [3]?
A: 109%

Q: And the viability, T/C [4]?
A: 105%

Q: And the viability, T/C [5]?
A: 97.9%

Q: What about the viability, T/C [6] of the same compound?
A: 92.9%

Q: And the viability, T/C [7]?
A: 106%

Q: What about the viability, T/C [8] of the same compound?
A: 93.2%

Q: What about the viability, T/C [9] of the same compound?
A: 105%

Q: And the viability, T/C [10]?
A: 114%

Q: And the viability, T/C [11]?
A: 103%

Q: What about the viability, T/C [12] of the same compound?
A: 101%

Q: And the viability, T/C [13]?
A: 96%

Q: What about the viability, T/C [14] of the same compound?
A: 92.9%

Q: What about the viability, T/C [15] of the same compound?
A: 102%

Q: What about the viability, T/C [16] of the same compound?
A: 95.2%

Q: And the viability, T/C [17]?
A: 112%

Q: What about the viability, T/C [18] of the same compound?
A: 103%

Q: What about the viability, T/C [19] of the same compound?
A: 101%

Q: And the viability, T/C [20]?
A: 103%

Q: And the viability, T/C [21]?
A: 111%

Q: What about the viability, T/C [22] of the same compound?
A: 97.6%

Q: And the viability, T/C [23]?
A: 115%

Q: What about the viability, T/C [24] of the same compound?
A: 102%

Q: And the viability, T/C [25]?
A: 83.9%

Q: What about the viability, T/C [26] of the same compound?
A: 90.9%

Q: And the viability, T/C [27]?
A: 93.6%

Q: And the viability, T/C [28]?
A: 88.4%

Q: What about the viability, T/C [29] of the same compound?
A: 101%

Q: What about the viability, T/C [30] of the same compound?
A: 80.3%

Q: What about the viability, T/C [31] of the same compound?
A: 88.2%

Q: What about the viability, T/C [32] of the same compound?
A: 81.6%

Q: And the viability, T/C [33]?
A: 111%

Q: And the viability, T/C [34]?
A: 104%

Q: What about the viability, T/C [35] of the same compound?
A: 96.3%

Q: And the viability, T/C [36]?
A: 77.4%
